# Tested on: Human dermal fibroblasts
# Assay: Cell activity (AlamarBlue) of cells irradiated with UV through a UV wavelength conversion substance
# Assay type: cell-based
# Settings: for cell activity at UV irradiation (relative fluorescence intensity): UV dose 0, 10, 25, 50, 75 or 100 mJ/cm^2, FIG. 3
# Method: 1. Human dermal fibroblasts and human skin keratinocytes purchased from Kurabo Industries Ltd. were used. A cell suspension (1 mL) stored in liquid nitrogen was thawed in a water bath (37° C.) to an extent that small ice pellets remained, and then diluted with 9 mL of warm medium.
# 10. Depending on the cell type, fibroblasts were resuspended in FGM or KGM at a concentration of 2×10^4 cells/well (500 μL), and keratinocytes were resuspended in FGM or KGM at a concentration of 4×10^4 cells/well (500 μL) and plated 24-well plates.
# 11. Cells were seeded in 24-well plates and the media were changed periodically (once every 2 days for fibroblasts and once every 2 to 3 days for keratinocytes) and the cells were grown until 60 to 70% confluence (depending on the type of experiment) was reached. (Note: Fibroblasts should reach the desired confluency in 24 hours at a cell density of 2×10^4 cells/well. When the cell density is low, for example, 1×10^4 cells/well, it takes 48 hours for fibroblasts to reach the desired confluency.)
# 12. 24 hours before irradiation, the medium was changed to a supplement-free medium (in the case of keratinocytes) or a medium containing a low concentration of serum (0.5% FCS) (in the case of fibroblasts).
# 1. A solar simulator was turned on at least 30 minutes before irradiation to warm up a lamp. The solar simulator was set to use a UG11 filter. UG11 filters are filters that allow only UVB to pass and cut light of other wavelengths.
# 3. The cells prepared in Experiment 1-2 were washed once with warm PBS.
# 4. To each well was added 0.5 mL of a warmed Martinez solution (145 mM NaCl, 5.5 mM KCl, 1.2 mM MgCl2.6H2O, 1.2 mM NaH2PO4.2H2O, 7.5 mM HEPES, 1 mM CaCl2, and 10 mM D-glucose).
# 5. As depicted in FIG. 1, cell wells were placed on a plate. Then, 0.4 ml of a solution containing the UV wavelength conversion substances (1) to (4) prepared in Experiment 1-1 was injected into each well of a 24-well plate. […]
# 4. Fluorescence measurement values at 544 nm/590 nm were read using a fluorometer (OPwave +, Ocean Photonics). […]
substance,measurement,setting,value
C-phycocyanin,cell activity at UV irradiation (relative fluorescence intensity),0.4% C-phycocyanin solution,the decrease in cell activity was suppressed
same,cell activity at UV irradiation (relative fluorescence intensity),2% C-phycocyanin solution,the cell activity was even increased
same,cell activity of cells having activity temporarily reduced by UV (relative fluorescence intensity),"pre-irradiation 400 mJ/cm^2 without substance, then UV 0-200 mJ/cm^2 through 0.4% or 2% C-phycocyanin (effect equivalent at both), FIG. 5",cell activity was recovered

# Reference: patent US20220160604A1, “EMULSION COMPOSITION COMPRISING ULTRAVIOLET WAVELENGTH CONVERSION SUBSTANCE AND ORGANIC OILY PHASE THICKENER” (Shiseido Company, Ltd., priority 2019, published 2022)
